Measurements published in publication PMC4032197 (Journal of Medicinal Chemistry, 2014).

Tests used:
[1] = biological target: T1, human EP2 receptors (Homo sapiens, UniProt P43116); conditions: for EP2 potency (in words): tested at 1 μM
[2] = mouse
[3] = biological target: T1, human EP2 receptors; conditions: earlier study; cited from earlier work

T1 sequence (P43116 whole entry): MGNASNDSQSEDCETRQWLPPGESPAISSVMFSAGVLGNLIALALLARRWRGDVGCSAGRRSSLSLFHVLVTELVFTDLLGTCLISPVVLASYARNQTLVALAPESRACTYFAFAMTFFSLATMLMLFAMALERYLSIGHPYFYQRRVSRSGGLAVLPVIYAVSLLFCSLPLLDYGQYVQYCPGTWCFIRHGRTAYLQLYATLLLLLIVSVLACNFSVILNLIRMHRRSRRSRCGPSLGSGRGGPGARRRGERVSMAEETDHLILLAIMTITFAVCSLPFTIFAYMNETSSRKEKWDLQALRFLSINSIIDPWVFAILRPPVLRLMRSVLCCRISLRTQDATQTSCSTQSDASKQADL

SMILES | fold less EP2 potency in comparison to 5a [1] | EP2 potency (in words) [1] | further results
COc1ccc(/C=C/C(=O)NCCn2c(C(F)(F)F)cc3ccccc32)cc1 [5e] |  |  | fold less EP2 potency in comparison to 5d [1]: 16 fold
Cc1cc(/C=C/C(=O)NCCn2c(C(F)(F)F)cc3ccccc32)cc(C)c1F [5f] |  |  | fold less EP2 potency in comparison to 5d [1]: 16 fold
COc1cc(/C=C/C(=O)NCCc2c(C)oc3ccccc23)cc(OC)c1OC [5k] | 138 fold |  | 
COc1cc(/C=C/C(=O)NCc2c(C)[nH]c3ccccc23)cc(OC)c1OC [5s] |  | complete loss of potency | 
COc1ccc(CCNC(=O)CCn2c(C)cc3ccccc32)cc1OC [5u] |  | killed EP2 potency | 
COc1cc(C(N)CC(=O)NCCn2c(C)cc3ccccc32)cc(OC)c1OC (centres unmarked) [5w] | 180 fold |  | 
COC(=O)[C@H](Cc1c(C)[nH]c2ccccc12)NC(=O)/C=C/c1cc(OC)c(OC)c(OC)c1 [5y] |  | inactive | 
Cc1cc2ccccc2n1CCNC(=O)/C=C/c1ccc(OCCO)c(OCCO)c1 [6a, (E)-3-(3,4-Bis(2-hydroxyethoxy)phenyl)-N-(2-(2-methyl-1H-indol-1-yl)ethyl)acrylamide] |  |  | in vivo plasma half-life [2]: more than an hour; brain penetration property ([2]; in vivo): poor
COc1cc(/C=C/C(=O)OCCn2c(C)cc3ccccc32)cc(OC)c1OC [6h] | about 140 fold |  | 
Cc1cc2ccccc2n1CCNC(=O)C1CC1c1ccc(F)cc1 (centres unmarked) [6i] | 100 fold |  | 
COc1cc(/C=C/C(=O)NCCN2CCCCC2C)cc(OC)c1OC (centres unmarked) [6j] |  |  | EP2 activity (in words) [3]: complete loss of activity
COc1ccc(/C=C/C(=O)NCCn2c(C)cc3ccccc32)cc1 [6q] | 7 fold |  | 
COc1cc(/C=C/C(=O)NCCc2n[nH]c3ccccc23)cc(OC)c1OC [6t] |  | completely lost EP2 potency | 
